These are literature values, as cited in patent publication US20180064146A1, “METHOD FOR THE SURFACE DECONTAMINATION OF PACKAGED SOLID FOOD” (priority 2015, published 2018).

Series [1] concerns strains of Arcobacter butzleri. The note with it: vapours; Arcobacter butzleri in cabbage leaf; to an undetectable level.
Another series concerns Escherichia coli. The settings on record: for MICs (in liquid form): agar dilution, oil in liquid form; for MIDs (as vapour): oil as vapour. On the technique in general: Agar dilution tests growth on a series of plates holding different concentrations.

In the case of `CC(C)=CCCC(C)=CC=O` [Citral], the microbial load reduction in series [1] was 7 log CFU/2 cm^2. Moreover, in the series on Escherichia coli, the “MICs (in liquid form)” value is 800 µg/mL and the “MIDs (as vapour)” value is 12.5 μg/cm^2.
Turning to `C=C(C)[C@H]1CC=C(C)CC1` [Limonene], in the series on Escherichia coli, the “MICs (in liquid form)” value is 3200 µg/mL and the “MIDs (as vapour)” value is given as 800 μg/cm^2.
With `C=CC(C)(O)CCC=C(C)C` (centres unmarked) [Linalool], the microbial load reduction in series [1] is 7 log CFU/2 cm^2. Besides, in the series on Escherichia coli, the “MICs (in liquid form)” value was 3200 µg/mL and the “MIDs (as vapour)” value is 50 μg/cm^2.
